According to patent publication US20250388620A1, “EFFICIENT METHOD FOR MAKING HIGHLY PURIFIED 5’- CAPPED OLIGONUCLEOTIDES” (TriLink BioTechnologies, LLC, priority 2022, published 2025):

Key:
HeLa cells = assay: mWasabi fluorescence assay (protein expression of capped mRNA) in HeLa cells; assay type: cell-based; conditions: mWasabi encoding mRNA capped with the cap analog, 24 hours post transfection, 12.5 ng mRNA per well
Experimental: (§1) Wasabi and FLuc mRNAs capped with cap analog ARCA, cap analog A-1, cap analog A-2, cap analog 3′OMe, or cap analog A-Control (see Table 2) were prepared as described in International Patent Publication Nos. WO2017053297 and WO2023147352 which are incorporated herein by reference in their entirety.
(§2) The IVT template was used to prepare mWasabi encoding mRNA (970 nucleotides) with cap analogs A-control, 3′OMe, A-1 or A-2 by in-vitro transcription. The mRNAs were purified prior to use in assays described below. Protein expression was measured by Allele Biotechnology in cell-based assays.
(§3) mWasabi Fluorescence Assay:
(§4) The day before transfection: cells were seeded as follows: • HEK293 cells: 6.25×10^4/cm^2 • HeLa cells: 3.125×10^4/cm^2 • The cells were dissociated with TrypLE • HEK293 cells were seeded in 96 well plates coated with Poly-D-Lysine (50 μL at 100 μg/mL per well). • HeLa cells were seeded in 96 well plates (no coating required). • The cells were seeded in 100 μL of growth media (Growth Media: DMEM+10% FBS supplemented with GlutaMAX and MEM Non-Essential Amino Acids).
(§5) The day of transfection: Opti-MEM and MessengerMax Transfection Reagent were allowed to reach room temperature. Two tubes were set up for each mRNA (i.e., for each cap analog). […]
(§6) mWasabi fluorescent expression was quantified using Cytation 10 after 24 hours.

HEK293 cells = assay: mWasabi fluorescence assay (protein expression of capped mRNA) in HEK293 cells; assay type: cell-based; conditions: mWasabi encoding mRNA capped with the cap analog, 24 hours post transfection, 12.5 ng mRNA per well
Experimental: as §1, §2, §3, §4, §5, §6

Substance | fluorescence intensity (i.e., protein expression levels) (HeLa cells) | fluorescence intensity (i.e., protein expression levels) (HEK293 cells)
^N7-(4-chlorobenzyl)G3′OMeppp^m6A2′OMepG [Compound A-1] | comparable to that of mRNA capped with Cap 3′OMe or mRNA capped with A-control, and much higher than that of mRNA capped with ARCA cap | comparable to that of mRNA capped with Cap 3′OMe or mRNA capped with A-control, and much higher than that of mRNA capped with ARCA cap
^m7, N2-butylG3′OMeppp^m6A2′OMepG [Compound A-2] | comparable to that of mRNA capped with Cap 3′OMe or mRNA capped with A-control, and much higher than that of mRNA capped with ARCA cap | comparable to that of mRNA capped with Cap 3′OMe or mRNA capped with A-control, and much higher than that of mRNA capped with ARCA cap
